Test [1] deals with T1, Mtb alanine racemase (Alr) (Mycobacterium tuberculosis, UniProt P9WQA9).
In test [2] the target is T1, Mtb alanine racemase (Alr). Description: […]; Michaelis-Menten kinetics. Type of test: biochemical.

SMILES strings stand for the structures.

T1 sequence (P9WQA9 whole entry): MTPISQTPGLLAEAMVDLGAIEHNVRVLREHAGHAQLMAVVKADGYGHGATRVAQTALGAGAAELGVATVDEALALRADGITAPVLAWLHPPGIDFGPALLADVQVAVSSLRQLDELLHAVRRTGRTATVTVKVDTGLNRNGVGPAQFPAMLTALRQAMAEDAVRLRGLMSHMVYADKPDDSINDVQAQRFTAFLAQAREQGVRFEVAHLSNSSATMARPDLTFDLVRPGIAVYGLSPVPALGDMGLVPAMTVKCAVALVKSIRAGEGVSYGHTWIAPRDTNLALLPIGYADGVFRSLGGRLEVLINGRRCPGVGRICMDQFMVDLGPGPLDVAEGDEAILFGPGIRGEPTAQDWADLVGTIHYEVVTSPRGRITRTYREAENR

`C[C@@H](N)C(=O)O` [D-alanine]: the “Michaelis-Menten kinetics of purified Alr in the coupled NADH fluorescence assay” value in test [1] was “Varying the concentration of D-alanine yielded conventional Michaelis–Menten kinetics for Alr”.

The IC50 is the concentration at which inhibition is half-maximal. In test [2], `CCOC(=O)[C@H](CCc1ccccc1)N[C@H]1CCc2ccccc2N(CC(=O)O)C1=O` [benazepril] came in with an IC50 of 300 µM.

The values are drawn from paper PMC9262897, “Low-cost anti-mycobacterial drug discovery using engineered E. coli” (Nature Communications, 2022).
